Data from patent publication US9453026B2, “ACC inhibitors and uses thereof” (Gilead Apollo, Inc., priority 2011, dated 2016).
Converted amounts (≈) assume the structure as drawn. Where two headings read alike, the source gives them in different places.

Legend:
[1] = system: ACC1; settings: ACC1 isolated from rat, mouse, monkey and human; cited from earlier work
[2] = system: ACC2; settings: ACC2 isolated from rat, mouse, monkey and human; cited from earlier work
[3] = system: ACC; assay: IC50 quoted for Soraphen A in the thermal shift text; format: biochemical
[4] = target: ACC1 (Homo sapiens, UniProt Q13085); assay: In vitro ACC1 inhibition assay (ADP-Glo); format: biochemical; settings: read-out: ACC1
Summary of the method: (§1)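 Enzyme (human ACC1 or ACC2) and compound, serially diluted 1:3 over 11 points from a 600 uM DMSO stock, were preincubated 15 min before substrate addition.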

[5] = target: ACC2 (Homo sapiens, UniProt O00763); assay: In vitro ACC2 inhibition assay (ADP-Glo); format: biochemical; settings: read-out: ACC2
Summary of the method: as §1

[6] = system: target protein (ACC); assay: Thermal Shift Assay (TSA); format: binding; settings: FIG. 3
From the text: 103, 43, 15835-15840, the entirety of which is incorporated herein by reference.

[7] = system: HepG2 cells; assay: [14C] Acetate Incorporation HepG2 Cellular Assay; format: cell-based; settings: Homo sapiens; HepG2 cells, FIG. 4; read-out: IC50, incorporation of isotopically labeled acetate into fatty acids
Method: Compounds of the present invention were evaluated in a [^14C] Acetate Incorporation Assay. An exemplary procedure for the assay, which measures the incorporation of isotopically labeled acetate into fatty acids, follows. HepG2 cells were maintained in T-75 flasks containing DMEM supplemented with 2 mM 1-glutamine, penicillin G (100 units/ml), streptomycin 100 μg/ml with 10% FBS and incubated in a humidified incubator with 5% CO2 at 37° C. Cells were fed every 2-3 days. On Day 1. cells were seeded in 24 well plates at a density of 1.2×10^5 cells/ml/well with the growth medium. On Day 3 the medium was replaced with fresh medium containing 10% FBS. On Day 4 the medium was replaced with 0.5 ml of fresh medium containing test compound (in DMSO; final [DMSO] is 0.5%) and the cells were incubated at 37° C. for 1 hour. To one copy of plate, 4 ul of [2-^14C]acetate (56 mCi/mmol; 1 mCi/ml; PerkinElmer) was added and the cells were incubated at 37° C., 5% CO2 for 5 hrs. To a second copy of plate, 4 ul of cold acetate were added and the cells were incubated at 37° C., 5% CO2 for 5 hrs. This plate was used for protein concentration measurement. Medium was removed and placed in a 15 ml centrifuge tube (BD, Falcon/352096). Cells were rinsed with 1 ml PBS, then aspirated, and the rinse and aspiration steps were repeated. 0.5 ml of 0.1N NaOH were added to each well and let sit at RT to dissolve cell monolayer. The remaining cell suspension was pooled with medium. For the protein determination plate, an aliquot was removed for protein determination (25 ul). […] 5 ml petroleum ether was added per tube, shaken vigorously, centrifuged at 1000 rpm for 5 min, and 500 uL of the petroleum ether layer was transferred to tubes for Microbeta reading, then 2 ml Aquasol-2 were added to each tube, the tubes were shaken and counted with a Microbeta Liquid Scintillation Counter (Perkin Elmer).
The remaining petroleum ether layer was discarded and the aqueous phase reserved for fatty acid extractions. […] 2 ml of Aquasol-2 was added to each vial, and the vials were shaken and counted on a scintillation counter.

[8] = system: C. albicans ATCC 90028; assay: Anti-Fungal Activity Assay (broth microtiter MIC); format: cell-based; settings: 3 replicates, test compounds read at 48 h
Method: (§2) Compounds of the present invention were evaluated in an Anti-Fungal Activity Assay. An exemplary procedure for the assay, which measures the susceptibility of various Candida species to anti-fungal compounds, follows. Compounds to be tested (including fluconazole and amphotericin B) were dissolved in DMSO to obtain a solution having a concentration of 1 mg/mL. […] All species were grown from frozen stock by directly plating on to freshly prepared Sabouraud Dextrose agar (BD, Difco) and incubated overnight in ambient air at 35° C. for 24 h. A direct suspension was prepared in RPMI 1640+MOPS (Lonza, Biowhittaker) by taking individual colonies from the overnight cultures using sterile swabs soaked in sterile saline. The concentration of the suspension was determined using pre-determined standard curves. […] The original CLSI guidelines focused on reading Candida MICs after 48 h of incubation. As reading after only 24 h offers a clear advantage of patient care, QC limits are being established for all drugs at 24 h. That being said there are no known interpretive breakpoints for amphotericin B at 24 h and the current fluconazole interpretive breakpoints are based on a 48 h reading. The MIC breakpoints for the Pharmaron test compounds were recorded at 48 h, and for the soraphen the 24 h time-point was added. All MIC determinations were achieved by visually comparing the growth found in the antibiotic challenged wells to that of the growth control.

[9] = system: C. krusei ATCC 6258; assay: Anti-Fungal Activity Assay (broth microtiter MIC); format: cell-based; settings: 3 replicates, test compounds read at 48 h
Method: as §2

[10] = system: C. parapsilosis ATCC 22019; assay: Anti-Fungal Activity Assay (broth microtiter MIC); format: cell-based; settings: 3 replicates, test compounds read at 48 h
Method: as §2

[11] = system: Candida species; assay: Anti-Fungal Activity Assay, summary over Candida species; format: cell-based; settings: summary of Table 3
Method: as §2

[12] = system: LNCaP (prostate cancer cell line) cells; assay: Cancer Cell Viability Assay; format: cell-based, human; settings: concentration of 5 uM, FIG. 5
Method: Compounds of the invention were also assayed in a Cancer Cell Viability Assay as described by Beckers et al. “Chemical Inhibition of Acetyl-CoA Carboxylase Induces Growth Arrest and Cytotoxicity Selectively in Cancer Cells” Cancer Res. (2007) 67, 8180-8187. An exemplary procedure for the assay, which measures the percentage of cancer cells surviving following administration of inhibitor compounds, follows.
LNCaP (prostate cancer cell line) cells plated at 4×10^5 per 6 cm dish were incubated at 37° C., and the following day they were treated with increasing concentrations of inhibitor compounds and incubated. Viable cells and the percentage of dead cells was counted and calculated every day for 5 days from day 0, using trypan blue staining.

ACC2 (Homo sapiens, UniProt O00763), sequence (O00763 whole entry, species assumed): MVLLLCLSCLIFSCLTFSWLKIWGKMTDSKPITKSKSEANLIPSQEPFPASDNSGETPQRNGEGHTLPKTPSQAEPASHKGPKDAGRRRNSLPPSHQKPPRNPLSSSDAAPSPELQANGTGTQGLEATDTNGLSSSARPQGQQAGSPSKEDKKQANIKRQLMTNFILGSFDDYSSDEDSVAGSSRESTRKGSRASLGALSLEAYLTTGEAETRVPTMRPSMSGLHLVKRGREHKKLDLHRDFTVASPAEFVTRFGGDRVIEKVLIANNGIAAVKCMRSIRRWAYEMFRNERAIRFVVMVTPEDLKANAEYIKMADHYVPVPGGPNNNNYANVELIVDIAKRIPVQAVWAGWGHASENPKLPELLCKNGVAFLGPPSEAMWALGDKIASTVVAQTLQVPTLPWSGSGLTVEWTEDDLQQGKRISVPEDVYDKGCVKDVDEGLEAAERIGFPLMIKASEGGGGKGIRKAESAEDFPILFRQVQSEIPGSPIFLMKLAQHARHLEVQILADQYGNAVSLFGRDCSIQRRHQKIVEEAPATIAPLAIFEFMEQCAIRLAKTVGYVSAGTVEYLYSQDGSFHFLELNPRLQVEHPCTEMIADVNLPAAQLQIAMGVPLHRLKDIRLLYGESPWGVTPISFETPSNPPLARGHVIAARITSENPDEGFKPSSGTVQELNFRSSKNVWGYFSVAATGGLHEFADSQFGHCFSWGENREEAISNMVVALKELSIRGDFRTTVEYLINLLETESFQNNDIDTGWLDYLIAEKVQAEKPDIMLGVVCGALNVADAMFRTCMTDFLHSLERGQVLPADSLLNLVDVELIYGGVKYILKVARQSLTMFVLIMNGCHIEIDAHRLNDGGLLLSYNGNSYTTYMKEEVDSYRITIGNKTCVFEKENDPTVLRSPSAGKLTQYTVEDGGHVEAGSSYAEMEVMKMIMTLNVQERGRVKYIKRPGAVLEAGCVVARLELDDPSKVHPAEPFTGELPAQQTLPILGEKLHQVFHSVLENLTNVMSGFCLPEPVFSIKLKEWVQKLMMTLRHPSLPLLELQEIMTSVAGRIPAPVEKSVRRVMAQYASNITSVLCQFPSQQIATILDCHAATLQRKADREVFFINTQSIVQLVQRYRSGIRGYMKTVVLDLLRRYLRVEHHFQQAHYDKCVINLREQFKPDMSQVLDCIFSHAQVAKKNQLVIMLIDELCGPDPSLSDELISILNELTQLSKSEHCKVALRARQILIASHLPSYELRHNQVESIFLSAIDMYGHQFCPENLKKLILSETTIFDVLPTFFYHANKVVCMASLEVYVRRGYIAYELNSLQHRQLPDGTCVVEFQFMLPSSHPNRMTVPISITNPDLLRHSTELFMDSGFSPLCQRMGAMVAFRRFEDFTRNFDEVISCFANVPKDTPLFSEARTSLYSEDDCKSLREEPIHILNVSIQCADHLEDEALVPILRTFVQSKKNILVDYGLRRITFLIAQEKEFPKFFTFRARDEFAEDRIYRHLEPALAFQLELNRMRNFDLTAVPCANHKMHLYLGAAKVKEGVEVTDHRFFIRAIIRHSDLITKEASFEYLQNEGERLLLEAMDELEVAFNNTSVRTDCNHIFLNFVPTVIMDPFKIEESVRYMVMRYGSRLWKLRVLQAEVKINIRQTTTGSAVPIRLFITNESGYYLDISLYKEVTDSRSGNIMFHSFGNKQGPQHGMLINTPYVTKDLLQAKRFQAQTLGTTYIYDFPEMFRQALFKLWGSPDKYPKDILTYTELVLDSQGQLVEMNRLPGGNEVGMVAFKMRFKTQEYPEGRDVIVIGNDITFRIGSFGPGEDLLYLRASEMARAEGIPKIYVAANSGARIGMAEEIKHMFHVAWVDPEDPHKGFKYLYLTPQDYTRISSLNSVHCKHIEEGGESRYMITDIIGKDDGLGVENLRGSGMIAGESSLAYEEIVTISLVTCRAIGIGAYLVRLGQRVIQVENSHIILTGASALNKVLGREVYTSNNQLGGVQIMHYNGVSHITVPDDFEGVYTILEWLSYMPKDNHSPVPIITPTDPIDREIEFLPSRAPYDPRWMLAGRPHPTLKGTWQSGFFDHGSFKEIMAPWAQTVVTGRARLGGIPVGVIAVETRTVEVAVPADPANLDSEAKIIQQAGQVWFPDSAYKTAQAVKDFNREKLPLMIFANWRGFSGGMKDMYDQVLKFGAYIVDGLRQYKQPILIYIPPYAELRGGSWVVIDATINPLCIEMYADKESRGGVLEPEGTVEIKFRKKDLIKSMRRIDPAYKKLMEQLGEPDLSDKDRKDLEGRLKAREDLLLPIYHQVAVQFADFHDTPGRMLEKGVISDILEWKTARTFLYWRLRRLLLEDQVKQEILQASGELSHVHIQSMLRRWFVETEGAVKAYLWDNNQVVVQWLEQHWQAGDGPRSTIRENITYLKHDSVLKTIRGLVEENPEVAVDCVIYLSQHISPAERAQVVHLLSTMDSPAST

## O=C(c1c2ccccc2cc2ccccc12)N1CCC(N2CCC[C@@H](C(=O)N3CCOCC3)C2)CC1 [CP-640186]
[1]
  IC50: ~60 nM
[2]
  IC50: ~60 nM

## CO[C@H]1CCCC[C@@H](c2ccccc2)OC(=O)[C@@H](C)[C@@]2(O)O[C@H]([C@@H](C)[C@H](O)[C@H]2OC)[C@@H](C)/C=C/[C@H]1OC [Soraphen A]
[3]
  IC50: 4 nM

## COc1ccccc1[C@@H](Cn1c(=O)n(C(C)(C)C(=O)O)c(=O)c2c(C)c(-c3ncco3)sc21)OC(C)C [I-158, 2-[1-[(2S)-2-(2-methoxyphenyl)-2-(propan-2-yloxy)ethyl]-5-methyl-6-(1,3-oxazol-2-yl)-2,4-dioxo-1H,2H,3H,4H-thieno[2,3-d]pyrimidin-3-yl]-2-methylpropanoic acid]
[4]
  IC50: < 100 nM
[5]
  IC50: < 100 nM
[6]
  thermal melting point change compared with Soraphen A: equivalent to that of Soraphen A
[7]
  IC50: < 100 nM
[8]
  MIC: 2 µg/mL (≈ 3.79 µM)
[8]; Candida albicans, ATCC90028, 48 h, read-out: MIC
  MIC: 2 µg/mL (≈ 3.79 µM)
[9]
  MIC: 2 µg/mL (≈ 3.79 µM)
[9]; Pichia kudriavzevii, ATCC6258, 48 h, read-out: MIC
  MIC: 2 µg/mL (≈ 3.79 µM)
[10]
  MIC: 8 µg/mL (≈ 15.2 µM)
[10]; Lodderomyces parapsilosis, ATCC22019, 48 h, read-out: MIC
  MIC: 8 µg/mL (≈ 15.2 µM)
[11]
  anti-fungal activity MICs: low ug/mL range
[12]
  cell population growth: completely inhibit cell population growth
